Test results as given in ChEMBL document CHEMBL4422673, “Discovery, synthesis and characterization of a series of (1-alkyl-3-methyl-1H-pyrazol-5-yl)-2-(5-aryl-2H-tetrazol-2-yl)acetamides as novel GIRK1/2 potassium channel activators” (Bioorg Med Chem Lett, 2019).
Active and inactive are the calls of the source. No cut-off for these calls is given here.

What was measured:
[1] = target: T1, Kir3.1/Kir3.4 (Homo sapiens, UniProt P48549+P48544); assay: (§1) Activation of human GIRK1/4 expressed in HEK293 cells co-expressing rat mGlu8 by thallium flux assay; assay type: cell-based; settings: hek293
T1 sequence (P48549 whole entry): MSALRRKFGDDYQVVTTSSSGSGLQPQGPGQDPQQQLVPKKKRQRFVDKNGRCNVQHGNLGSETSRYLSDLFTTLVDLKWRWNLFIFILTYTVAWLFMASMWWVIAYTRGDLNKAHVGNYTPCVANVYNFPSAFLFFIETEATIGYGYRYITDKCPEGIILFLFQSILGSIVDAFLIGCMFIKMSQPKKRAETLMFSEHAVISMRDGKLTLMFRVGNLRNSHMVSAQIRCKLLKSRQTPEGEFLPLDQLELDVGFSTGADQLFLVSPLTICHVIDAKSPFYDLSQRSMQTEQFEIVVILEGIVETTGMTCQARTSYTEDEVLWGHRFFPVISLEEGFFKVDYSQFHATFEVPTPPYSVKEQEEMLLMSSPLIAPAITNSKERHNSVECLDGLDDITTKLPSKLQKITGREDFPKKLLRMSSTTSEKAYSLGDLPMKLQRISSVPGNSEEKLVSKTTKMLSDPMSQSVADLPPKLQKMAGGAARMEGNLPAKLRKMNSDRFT
T1 sequence (P48544 whole entry): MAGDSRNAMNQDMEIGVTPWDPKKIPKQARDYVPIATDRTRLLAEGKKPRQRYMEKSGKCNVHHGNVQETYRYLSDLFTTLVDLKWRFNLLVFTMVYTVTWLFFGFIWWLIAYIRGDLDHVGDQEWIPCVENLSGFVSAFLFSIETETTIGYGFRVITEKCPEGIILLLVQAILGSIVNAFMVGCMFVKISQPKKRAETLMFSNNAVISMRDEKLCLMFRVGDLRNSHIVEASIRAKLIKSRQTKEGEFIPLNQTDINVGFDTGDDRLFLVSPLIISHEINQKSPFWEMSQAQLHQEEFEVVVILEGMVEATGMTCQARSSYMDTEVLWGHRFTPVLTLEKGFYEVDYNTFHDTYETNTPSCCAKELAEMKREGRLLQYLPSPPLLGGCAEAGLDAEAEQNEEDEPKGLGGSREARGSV

[2] = target: Kir3.1/Kir3.2 (Homo sapiens) (UniProt P48549+P48051); assay: Activation of human GIRK1/2 expressed in HEK293 cells co-expressing rat mGlu8 by thallium flux assay relative to control; assay type: cell-based
[3] = target: T2, Kir3.1/Kir3.2 (Homo sapiens, UniProt P48051+P48549); assay: Activation of human GIRK1/2 expressed in HEK293 cells co-expressing rat mGlu8 by thallium flux assay; assay type: cell-based
T2 sequence (P48549 whole entry): T1 sequence (P48549 whole entry)
T2 sequence (P48051 whole entry): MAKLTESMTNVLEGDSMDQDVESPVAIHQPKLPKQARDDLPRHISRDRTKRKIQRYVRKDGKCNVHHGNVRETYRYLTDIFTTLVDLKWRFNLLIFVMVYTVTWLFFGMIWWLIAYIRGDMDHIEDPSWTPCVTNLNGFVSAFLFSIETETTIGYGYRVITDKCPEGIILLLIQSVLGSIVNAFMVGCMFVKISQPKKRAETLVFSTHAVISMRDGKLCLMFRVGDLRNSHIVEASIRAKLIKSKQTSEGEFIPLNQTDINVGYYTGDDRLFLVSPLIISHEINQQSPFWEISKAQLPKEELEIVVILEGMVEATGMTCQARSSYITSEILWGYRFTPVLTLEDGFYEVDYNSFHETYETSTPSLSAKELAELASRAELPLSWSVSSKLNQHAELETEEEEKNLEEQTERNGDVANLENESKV

[4] = target: Kir3.1/Kir3.4 (Homo sapiens) (UniProt P48549+P48544); assay: Activation of human GIRK1/4 expressed in HEK293 cells co-expressing rat mGlu8 by thallium flux assay relative to control; assay type: cell-based
[5] = target: T3, Kir3.1/Kir3.4 (Homo sapiens, UniProt P48544+P48549); assay: as §1; assay type: cell-based
T3 sequence (P48549 whole entry): T1 sequence (P48549 whole entry)
T3 sequence (P48544 whole entry): T1 sequence (P48544 whole entry)

[6] = Clearance in human liver microsomes
[7] = Clearance in mouse liver microsomes
[8] = Stability in mouse plasma; assay type: ADME, cell-free
[9] = Fraction unbound in human plasma; assay type: ADME, cell-free

SMILES	EC50 [1]	Emax [2] [%]	EC50 [3] [µM]	Emax [4]	EC50 [5] [µM]	CLhep predicted [6] [L/h/kg]	CLhep predicted [7] [L/h/kg]	Stability [8]	Fu [9] [%]
Cc1cc(NC(=O)Cn2nnc(-c3ccccc3)n2)n(C2CCC(C)(C)CC2)n1	Not Active	> 19	> 0.221	inactive	–	–	–	–	–
Cc1ccc(-c2nnn(CC(=O)Nc3cc(C)nn3C3CCCCC3)n2)cc1	–	86	0.111	64%	0.408	–	–	–	–
Cc1cc(NC(=O)Cn2nnc(-c3ccccc3)n2)n(CC(F)(F)F)n1	–	> 105	> 6	> 97%	> 10	–	–	–	–
CCC(C)n1nc(C)cc1NC(=O)Cn1nnc(-c2ccccc2)n1 (stereo not given)	–	> 69	> 5	> 20%	> 10	–	–	–	–
Cc1cc(NC(=O)Cn2nnc(-c3ccc(Cl)c(C)c3)n2)n(C2CCCCC2)n1	–	89	0.712	51%	1.51	–	–	–	–
Cc1cc(NC(=O)Cn2nnc(-c3cccc(C#N)c3)n2)n(C2CCCCC2)n1	–	80	0.183	55%	0.619	–	–	–	–
Cc1cc(NC(=O)Cn2nnc(-c3ccccc3)n2)n(C(C)C)n1	–	107	0.556	> 96%	> 4	–	–	–	–
COc1cccc(-c2nnn(CC(=O)Nc3cc(C)nn3C3CCCCC3)n2)c1	–	76	0.117	40%	0.299	–	–	–	–
Cc1cc(NC(=O)Cn2nnc(-c3cccc(F)n3)n2)n(C2CCCCC2)n1	–	> 83	> 3	> 38%	> 10	–	–	–	–
Cc1cc(NC(=O)Cn2nnc(-c3ccccc3)n2)n(-c2ccccc2)n1	–	66	3.02	25%	4.09	–	–	–	–
Cc1cc(NC(=O)Cn2cc(-c3ccccc3)cn2)n(C2CCCCC2)n1	–	72	0.065	52%	0.348	–	–	–	–
Cc1cc(NC(=O)Cn2nnc(C3CC3)n2)n(C2CCCCC2)n1	–	> 68	> 3	> 25%	> 10	–	–	–	–
Cc1cc(NC(=O)Cn2nnc(-c3ccccc3)n2)n(CC2CCCCC2)n1	–	77	0.176	58%	0.283	1.22	5.32	Unstable	0.3
Cc1cc(NC(=O)Cn2nnc(-c3ccccc3)n2)n(C2CCCC2)n1	–	105	0.163	84%	0.612	–	–	–	–
Cc1cc(NC(=O)Cn2nnc(-c3ccccc3F)n2)n(C2CCCCC2)n1	–	88	0.187	60%	0.447	–	–	–	–
O=C(Cn1nnc(-c2ccccc2)n1)Nc1cc(C2CC2)nn1C1CCCCC1	–	45	0.271	15%	0.659	–	–	–	–
Cc1cc(NC(=O)Cc2cccc(-c3ccccc3)c2)n(C2CCCCC2)n1	–	72	0.37	> 51%	> 4	–	–	–	–
Cc1cc(NC(=O)Cn2nnc(-c3ccccc3)n2)n(C2CCS(=O)(=O)CC2)n1	Not Active	> 25	> 10	inactive	–	–	–	–	–
Cc1cc(NC(=O)Cc2nnc(-c3ccccc3)s2)n(C2CCCCC2)n1	–	> 60	> 3	> 21%	> 10	–	–	–	–
COc1ccc(-c2nnn(CC(=O)Nc3cc(C)nn3C3CCCCC3)n2)cc1	–	90	0.175	65%	0.779	–	–	–	–
Cc1cc(NC(=S)Cn2nnc(-c3ccccc3)n2)n(C2CCCCC2)n1	–	80	0.623	36%	1.26	1.13	–	Unstable	< 0.06

SMILES	EC50 [1]	Emax [2] [%]	EC50 [3] [µM]	Emax [4]	EC50 [5] [µM]	CLhep predicted [6] [L/h/kg]	CLhep predicted [7] [L/h/kg]	Stability [8]	Fu [9] [%]
Cc1cc(NC(=O)Cn2ccc(-c3ccccc3)n2)n(C2CCCCC2)n1	–	88	0.511	49%	0.998	–	–	–	–
Cc1cc(NC(=O)Cn2nnc(-c3ccccc3)n2)n(C2CC2)n1	–	> 78	> 5	> 39%	> 10	–	–	–	–
Cc1cc(NC(=O)Cn2nnc(-c3cccc(C(F)(F)F)c3)n2)n(C2CCCCC2)n1	–	86	0.183	57%	0.85	–	–	–	–
Cc1cc(NC(=O)Cc2csc(-c3ccccc3)n2)n(C2CCCCC2)n1	–	44	1.33	> 18%	> 3	–	–	–	–
Cc1cc(NC(=O)Cc2coc(-c3ccccc3)n2)n(C2CCCCC2)n1	–	> 69	> 11	22%	3.98	–	–	–	–
Cc1cc(NC(=O)Cn2nnc(-c3cc(Cl)cc(Cl)c3)n2)n(C2CCCCC2)n1	–	82	0.98	51%	2.12	–	–	–	–
Cc1cc(NC(=O)Cn2nnc(-c3ccc(C(F)(F)F)cc3)n2)n(C2CCCCC2)n1	–	94	0.241	50%	0.448	–	–	–	–
Cc1cc(NC(=O)Cc2ccc(-c3ccc(Cl)c(Cl)c3)cc2)n(C2CCCCC2)n1	–	49	4.47	11%	4.35	–	–	–	–
O=C(Cn1nnc(-c2ccccc2)n1)NC1CC2CCC1C2 (stereo not given)	–	13	1.98	7%	2.76	–	–	–	–
Cc1cc(NC(=O)Cn2nnc(-c3ccccc3)n2)n(C2CCOCC2)n1	–	115	0.435	109%	2.04	–	–	–	–
CC1(c2cc(NC(=O)Cn3nnc(-c4ccccc4)n3)n(C3CCCCC3)n2)CC1	Not Active	> 10	> 10	inactive	–	–	–	–	–
Cc1cccc(-c2nnn(CC(=O)Nc3cc(C)nn3C3CCCCC3)n2)c1	–	93	0.129	63%	0.435	–	–	–	–
Cc1cc(NC(=O)Cn2nnc(-c3ccnc(F)c3)n2)n(C2CCCCC2)n1	–	95	0.441	68%	1.34	–	–	–	–
Cc1cc(NC(=O)Cn2nnc(-c3ccc(F)cc3)n2)n(C2CCCCC2)n1	–	92	0.18	74%	0.634	–	–	–	–
Cc1cc(NC(=O)Cc2ccc(-c3ccccc3)cc2)n(C2CCCCC2)n1	–	69	1.66	20%	1.82	–	–	–	–
Cc1cc(NC(=O)Cc2ncc(-c3ccccc3)o2)n(C2CCCCC2)n1	–	72	0.631	27%	1.13	–	–	–	–
Cc1cc(NC(=O)Cc2ccc(-c3ccccc3)cn2)n(C2CCCCC2)n1	Not Active	36	1.52	inactive	–	–	–	–	–
CC1CC1c1cc(NC(=O)Cn2nnc(-c3ccccc3)n2)n(C2CCCCC2)n1 (stereo not given)	–	78	0.843	> 19%	> 10	–	–	–	–
Cc1cc(NC(=O)Cn2nnc(-c3cccnc3)n2)n(C2CCCCC2)n1	–	96	1.93	80%	4.91	–	–	–	–
Cc1cc(NC(=O)Cn2nnc(-c3ccccc3)n2)n(Cc2ccccc2)n1	–	74	0.495	48%	0.848	–	–	–	–
Cc1cc(NC(=O)Cn2nnc(-c3ccccn3)n2)n(C2CCCCC2)n1	–	81	14.6	> 41%	> 33	–	–	–	–
